The NIST ThermoML archive (doi:10.1021/je0340755)
± gives the expanded uncertainty stated by the source.

Assay: xn = mol fraction of the nth substance listed
Settings: 101.3 kPa, Liquid; for viscosity: Capillary tube (Ostwald / Ubbelohde) method

CC(O)CO (stereo not drawn) [1,2-propanediol] + O
Settings | mass density, 328.15 K [kg/m3] | mass density, 338.15 K [kg/m3] | speed of sound, 328.15 K [m/s] | speed of sound, 338.15 K [m/s] | viscosity, 338.15 K [mPa·s]
x2 = 0.044 | – | 1002.38 ± 0.35 | – | 1395.8 ± 5.9 | 6.72 ± 0.072
x2 = 0.0987 | – | 1003.08 ± 0.35 | – | 1403.2 ± 5.9 | 6.302 ± 0.071
x2 = 0.1484 | – | 1003.72 ± 0.34 | – | 1408.2 ± 5.9 | 5.915 ± 0.07
x2 = 0.2498 | – | 1005.08 ± 0.33 | – | 1422.2 ± 6 | 5.133 ± 0.069
x2 = 0.3494 | – | 1006.46 ± 0.32 | – | 1441.9 ± 6 | 4.398 ± 0.067
x2 = 0.4494 | – | 1007.81 ± 0.32 | – | 1468 ± 6.1 | 3.698 ± 0.066
x2 = 0.5029 | – | 1008.45 ± 0.31 | – | 1485.6 ± 6.2 | 3.337 ± 0.065
x2 = 0.5499 | – | 1008.91 ± 0.31 | – | 1503.8 ± 6.2 | 3.027 ± 0.065
x2 = 0.5597 | – | 1008.99 ± 0.31 | – | 1507.9 ± 6.2 | 2.961 ± 0.065
x2 = 0.6501 | – | 1009.3 ± 0.3 | – | 1549 ± 6.4 | 2.378 ± 0.064
x2 = 0.7499 | – | 1008.09 ± 0.29 | – | 1590.8 ± 6.5 | 1.75 ± 0.064
x2 = 0.85 | – | 1003.47 ± 0.27 | – | 1604.3 ± 6.5 | 1.156 ± 0.063
x2 = 0.9003 | – | 998.8 ± 0.26 | – | 1593.6 ± 6.5 | 0.882 ± 0.063
x2 = 0.9115 | – | 997.45 ± 0.27 | – | 1589.7 ± 6.5 | 0.825 ± 0.063
x2 = 0.9154 | – | 996.94 ± 0.27 | – | 1588.2 ± 6.5 | 0.806 ± 0.063
x2 = 0.927 | – | 995.33 ± 0.27 | – | 1583.5 ± 6.5 | 0.749 ± 0.063
x2 = 0.9367 | 1000.17 ± 0.26 | 993.86 ± 0.28 | 1583.4 ± 6.5 | 1579.2 ± 6.4 | 0.702 ± 0.063
x2 = 0.9504 | 997.67 ± 0.26 | 991.56 ± 0.28 | 1575.1 ± 6.4 | 1572.9 ± 6.4 | 0.639 ± 0.063
x2 = 0.9551 | 996.73 ± 0.27 | 990.71 ± 0.28 | 1572.2 ± 6.4 | 1570.7 ± 6.4 | 0.618 ± 0.063
x2 = 0.96 | 995.72 ± 0.27 | 989.78 ± 0.29 | 1569.1 ± 6.4 | 1568.4 ± 6.4 | 0.597 ± 0.063
x2 = 0.9696 | 993.62 ± 0.27 | 987.84 ± 0.29 | 1563.1 ± 6.4 | 1563.8 ± 6.4 | 0.556 ± 0.063
x2 = 0.9797 | 991.21 ± 0.28 | 985.63 ± 0.3 | 1556.8 ± 6.4 | 1559.2 ± 6.4 | 0.515 ± 0.063
x2 = 0.9902 | 988.47 ± 0.29 | 983.11 ± 0.31 | 1550.5 ± 6.4 | 1554.7 ± 6.4 | 0.474 ± 0.063
x2 = 0.9923 | 987.9 ± 0.29 | 982.58 ± 0.31 | 1549.3 ± 6.4 | 1553.9 ± 6.4 | 0.466 ± 0.063
x2 = 0.9948 | 987.19 ± 0.29 | 981.93 ± 0.31 | 1547.8 ± 6.3 | 1552.9 ± 6.4 | 0.457 ± 0.063
